This passage reports Activity and LC50 results from ChEMBL document CHEMBL4043084, “Indole Alkaloids from Hunteria zeylanica” (J Nat Prod, 2017).

The subject of one assay is SGC-7901. Briefly: Cytotoxicity against human SGC7901 cells assessed as reduction in cell viability at 0.0624 to 40 uM incubated for 48 hrs by MTT assay. It counts as functional, cell-based.
The next assay relates to HeLa. Briefly: Cytotoxicity against human HeLa cells assessed as reduction in cell viability at 0.0624 to 40 uM incubated for 48 hrs by MTT assay. It counts as functional, cell-based.
A further assay relates to A549. Briefly: Cytotoxicity against human A549 cells assessed as reduction in cell viability at 0.0624 to 40 uM incubated for 48 hrs by MTT assay. The assay is classed as functional, cell-based. On the technique in general: Tetrazolium assays rely on reduction of a dye to a coloured formazan, in cell work by metabolically active cells.
The subject of another assay is Rhodobium porosum. As to the kind of experiment: Insecticidal activity against Rhodobium porosum adults placed on 5 secs compound pre-treated bean leaves after 1 day by leaf dipping protocol based method. It counts as functional.

SMILES strings stand for the structures. Calls of active or inactive are those of the source. The rule behind the calls is not given here.

Regarding `O[C@@H]1CC[C@H]2CN3CCc4c([nH]c5ccccc45)[C@@H]3C[C@@H]2C1`, the result in the assay with SGC-7901, with HeLa and in the assay on A549 was inactive.
With `C/C=C1\C[N+]2(C)CCc3c([nH]c4ccc(O)cc34)[C@@H]2C[C@@H]1CCO` (some centres not stated), the outcome with SGC-7901, with HeLa and in the assay with A549 was inactive.
On to `CC[C@]12CCCN3CC[C@]4(C(=C(C(=O)OC)C1)Nc1ccccc14)[C@@H]32`, for which the result in the assay on SGC-7901, with HeLa and in the assay on A549 was inactive.
For `CC[C@@]12CCCN3CCc4c(n(c5ccccc45)[C@@H](OC)C1)[C@H]32`, the outcome with SGC-7901, with HeLa and with A549 was inactive.
Turning to `C/C=C1/C[N@+]2(C)CCc3c([nH]c4ccccc34)C[C@H]1CC2`, the result with SGC-7901, in the assay with HeLa and with A549 was inactive.
For `C/C=C1/C[N@@+]2(C)CCc3c([nH]c4ccc(O)c([C@H]5C[C@H]6[C@@]7(C(=O)OC)CO[C@H](N(C)[C@H]7Cc7c5[nH]c5ccccc75)[C@@]65O[C@H]5C)c34)[C@@H]2C[C@@H]1CCO`, the outcome with SGC-7901, with HeLa and in the assay with A549 was inactive.
Regarding `CC[C@@H]1[C@H]2C[C@@H]3c4[nH]c5ccc(OC)cc5c4[C@@H](C(=O)[C@H]2CO)[C@@H]1N3C`, the result with SGC-7901, with HeLa and in the assay with A549 was inactive.
Take `C/C=C1/CN2CCc3c4n(c5ccccc35)[C@H](C(=O)OC)[C@@H]1C[C@@H]42`: the outcome in the assay with SGC-7901, with HeLa and in the assay with A549 was inactive.
For the compound `C/C=C1/CN2CC[C@@]34CN5c6c(cccc6[C@@]67CCN8CCC[C@@]9(CC[C@@]56[C@H]9C)[C@H]87)[C@@]35[C@@H]2CC1[C@@H](C(=O)OC)N5c1ccccc14`, the result with SGC-7901, in the assay on HeLa and in the assay with A549 was inactive.
Usually LC50 stands for the concentration lethal to half of the exposed cells or organisms. Take `C=C[C@H]1CN2CCc3c([nH]c4ccc(O)cc34)[C@@H]2C[C@@H]1CCO`: the outcome in the assay on SGC-7901, in the assay on HeLa and in the assay on A549 was inactive. Also, in the assay on Rhodobium porosum, the LC50 turned out to be 168 µM.
As to `C/C=C1\CN2CCc3c([nH]c4ccccc34)[C@@H]2C[C@@H]1CCO`, the result with SGC-7901, with HeLa and in the assay on A549 was inactive. The LC50 in the assay with Rhodobium porosum came out at 360 µM.
As to `C=C[C@H]1CN2CCc3c([nH]c4ccc(O)c([C@H]5C[C@@H]6/C(=C\C)CN(C)[C@@H](Cc7c5[nH]c5ccccc75)[C@@]6(CO)C(=O)OC)c34)[C@@H]2C[C@@H]1CCO`, the outcome in the assay with SGC-7901, with HeLa and in the assay with A549 was inactive.
Take `O=[N+]([O-])/N=C1\NCCN1Cc1ccc(Cl)nc1`: the 50% lethal concentration (LC50) in the assay with Rhodobium porosum was found to be 49 µM.
Take `C/C=C1/CN2CCc3c([nH]c4ccc(O)c([C@H]5C[C@@H]6/C(=C\C)CN(C)[C@@H](Cc7c5[nH]c5ccccc75)[C@@]6(CO)C(=O)OC)c34)[C@@H]2C[C@@H]1CCO`: the outcome with SGC-7901, with HeLa and with A549 was inactive.
As to `C/C=C1/C[N@@+]2(C)CCc3c([nH]c4ccc(O)c([C@H]5C[C@@H]6/C(=C\C)CN(C)[C@@H](Cc7c5[nH]c5ccccc75)[C@@]6(CO)C(=O)OC)c34)[C@@H]2C[C@@H]1CCO`, the outcome in the assay on SGC-7901, in the assay on HeLa and with A549 was inactive.
Turning to `CC[C@@]12CCCN3CCc4c(n(c5ccccc45)[C@H](OC)C1)[C@H]32`, the outcome with SGC-7901, in the assay on HeLa and in the assay on A549 was inactive.
`C/C=C1/CN2CC[C@@]34CN5c6c(cccc6[C@@]67CC[N+]8([O-])CCC[C@@]9(CC[C@@]56[C@H]9C)[C@@H]78)[C@@]35[C@@H]2CC1[C@@H](C(=O)OC)N5c1ccccc14` (some centres not stated): the result in the assay with SGC-7901, in the assay on HeLa and with A549 was inactive.
Turning to `O[C@H]1CC[C@H]2CN3CCc4c([nH]c5ccccc45)[C@@H]3C[C@@H]2C1`, the result with SGC-7901, with HeLa and with A549 was inactive.
As to `C/C=C1/CN(C)[C@H]2Cc3c([nH]c4ccccc34)[C@@H](c3cc4[nH]c5c(c4cc3O)CCN3C[C@H](CC)[C@@H](CCO)C[C@@H]53)C[C@H]1[C@]2(CO)C(=O)OC`, the result with SGC-7901, in the assay on HeLa and with A549 was inactive.
As for `C/C=C1/CN2CCc3c([nH]c4ccccc34)[C@@H]2C[C@@H]1[C@H](CO)C(=O)OC`, the outcome in the assay with SGC-7901, in the assay on HeLa and with A549 was inactive.
For `CC[C@H]1CN2CCc3c([nH]c4ccccc34)[C@@H]2C[C@@H]1CCO`, the result with SGC-7901, in the assay with HeLa and with A549 was inactive. In addition, in the assay with Rhodobium porosum, the median lethal concentration (LC50) turned out to be 291 µM.
Turning to `C/C=C1/C[N@@+](C)([O-])[C@H]2Cc3c4n(c5ccccc35)C35[C@@H]6C[C@H]7/C(=C\C)CN6CCC3(c3ccccc3N5[C@@H]7C(=O)O)[C@H]4CC1[C@H]2C(=O)OC` (some centres not stated), the outcome in the assay with SGC-7901, with HeLa and with A549 was inactive.
